{"source": "patent US20260226101A1", "about": "“PEPTIDE WITH ANTI-INFLAMMATORY AND ANTI-MICROBIAL ACTIVITY” (priority 2023, published 2026)", "key": {"[1]": {"tested_on": "LPS-stimulated RAW 264.7 cells", "test": "ELISA of cytokines in supernatants of LPS-stimulated RAW 264.7 cells", "type": "cell-based, murine", "protocol": "Cells were sub-cultured by scraping when plates reached 70-80% confluence with a 1:5 ratio in fresh medium. RAW 264.7 cells were plated at density of 1×10^5 cells and allowed for attachment. The growth medium was then replaced with fresh medium without FBS and incubated for 6 h then cells were pre-treated with different concentrations of synthetic peptides: IS 111 (3.12, 6.25, 12.5, 25, 50 and 100 μg/mL) or dexamethasone (500 μg/mL) as a positive control for 1 h followed by stimulation of LPS (1 μg/mL) and then further incubated for 18 h and were allowed to adhere. After 18 h of incubation, plates were centrifuged for 6 min at 400×g and the supernatants and cell lysates were collected and kept frozen at −80° C. until used for further analysis.\nAt the end of the treatment period, cells were harvested in RNA isoplus reagent for subsequent cellular RNA extraction, for RTqPCR. The pro & anti-inflammatory cytokine production in supernatants was estimated by using ELISA, RTqPCR and western blotting in cell lysates. The experiment was carried out in triplicate. LPS and Dexamethasone were used as the controls.\nThe following treatments were applied for the anti-inflammatory test: • (1) The negative control: RAW 264.7 cells without being induced by lipopolysaccharide; no drug treatment. • (2) The positive control: RAW264.7 cells that were induced by […] of lipopolysaccharide (LPS group). • (3) The mixture of Synthetic peptides: IS 111 (3.12, 6.25, 12.5, 25, 50 and 100 μg/ml), LPS (1 μg/mL) and RAW 264.7 cells; and • (4) The standard positive control: The mixture of dexamethasone (500 μg/mL), LPS (1 μg/mL), and RAW 264.7 cells.\nThe levels of IL-6, TNF-α, IL-1β, and IL-10 in the supernatants of RAW 264.7 cell cultures were determined using an ELISA kit, according to the manufacturer's instructions (R&D Systems)."}, "in vitro": {"test": "in vitro", "type": "cell-based, murine", "conditions": "mouse", "protocol": "Cell viability of synthetic peptides on the growth of RAW264.7 cells was measured using the methyl thiazolyl tetrazolium (MTT) assay after 48 h. Briefly, exponentially growing macrophages RAW264.7 cells were mechanically scraped, plated at a density of 7×10^3 cells in 100 μl were seeded into each well of a 96-well plate then incubated for 12 h at 37° C. under 5% CO2, and then the cells are treated with test peptides: IS 111 ([…]) or dexamethasone ([…]) cells were incubated at 37° C. in the presence of 5% CO2 for 42 h. After incubation, the morphology of cells was examined under a microscope. Following incubation, MTT was added to the cells (20 μL at 5 mg/mL MTT dissolved in 1×PBS) and incubated for 4 hours in the presence of 5% CO2 at 37° C. Formazan crystals were dissolved by the addition of 100 μL of 100% DMSO per well. Plates were then gently swirled for 5 min at room temperature to dissolve the precipitate. Absorbance was monitored at 575 nm using a microplate reader. Maximum cytotoxicity (100%) was determined by cells incubated with 1% Triton X-100; PBS was used as a negative control. Cells without treatment were considered as control. The average absorbance for each sample group was used to evaluate cell viability.\nOptical density (O.D.) was calculated as the difference between the absorbance at the reference wavelength and that at the test wavelength. The relative cell viability was determined by the amount of MTT converted to the insoluble formazan salt. The data were expressed as the mean percentage of viable cells when compared with untreated cells (control). The half maximal growth inhibitory concentration (IC50) value was calculated from the line equation of the dose-dependent curve of each compound. The results were compared with the cytotoxic activity of dexamethasone, a known anti-inflammatory drug. […] Percentages of cell viability and LC50 of cells were calculated: Percent cell viability was calculated as (O.D. of drug-treated sample/control O.D.)×100. The data were expressed as percent cell viability compared with control (dimethyl sulfoxide/NS). The experiment was carried out in four samples of each concentration.\nThe percentages of cell viability and LC50 of cells were calculated by using the formula below.\nWhere Absorbance control is the DMSO 0.1%-treated cell absorbance, and Absorbance sample is the test sample-treated cell absorbance. LC50 values were derived from dose-response curves, and data were expressed as the mean of three independent experiments. Statistical analyses involved Student's t-test and one-way ANOVA.\nThe test peptide IS 111 cytotoxic effects on RAW 264.7 mouse […] were determined by MTT assay. […] Cell viability was measured by MTT assay based on the conversion of yellow tetrazolium salt to form a purple formazan product. The viability of the RAW 264.7 cells can be seen on table 21."}, "[2]": {"conditions": "3.12-100 μg/mL pretreatment, LPS 18 h, vs LPS group"}}, "note": "Ends that are not written are not given here."}
{"substance": "FAKKFAK [IS 111, Phe-Ala-Lys-Lys-Phe-Ala-Lys]", "values": [{"measurement": "IL-1β production (ELISA)", "setting": "[1]; [2]", "result": "inhibited"}, {"measurement": "IL-6 levels (ELISA)", "setting": "[1]; [2]", "result": "reduced"}, {"measurement": "IL-10 levels (ELISA)", "setting": "[1]; [2]", "result": "significantly increased"}, {"measurement": "TNF-alpha levels (ELISA)", "setting": "[1]; [2]", "result": "significantly reduced"}, {"measurement": "Concentration with better inhibition of TNF-α, IL-1β and IL-6 than 100 μg/mL", "setting": "[1]; LPS induced RAW 264.7", "result": 25, "unit": "µg/mL"}, {"measurement": "NO production", "setting": "[1]; LPS-stimulated RAW cells, summary table", "result": "↓Cytotoxicity; ↓ NO production; ↓"}, {"measurement": "viability at 48 h, 1.5625 μg/mL", "setting": "in vitro", "result": 84.5, "unit": "%"}, {"measurement": "viability at 48 h, 3.125 μg/mL", "setting": "in vitro", "result": 91.5, "unit": "%"}, {"measurement": "viability at 48 h, 6.25 μg/mL", "setting": "in vitro", "result": 90.2, "unit": "%"}, {"measurement": "viability at 48 h, 12.5 μg/mL", "setting": "in vitro", "result": 99.7, "unit": "%"}, {"measurement": "viability at 48 h, 25 μg/mL", "setting": "in vitro", "result": 96.4, "unit": "%"}, {"measurement": "viability at 48 h, 50 μg/mL", "setting": "in vitro", "result": 95, "unit": "%"}, {"measurement": "viability at 48 h, 100 μg/mL", "setting": "in vitro", "result": 91.4, "unit": "%"}]}
